Results from patent US12637425B2, “Compounds and formulations for treating ophthalmic diseases” (Visus Therapeutics, Inc., priority 2020, dated 2026).
pIC50: −log10 of the molar value.

Target: T1, Recombinant cryAB(R120G) protein (Homo sapiens, UniProt P02511, R120G)
T1 sequence (P02511 1-175 R120G): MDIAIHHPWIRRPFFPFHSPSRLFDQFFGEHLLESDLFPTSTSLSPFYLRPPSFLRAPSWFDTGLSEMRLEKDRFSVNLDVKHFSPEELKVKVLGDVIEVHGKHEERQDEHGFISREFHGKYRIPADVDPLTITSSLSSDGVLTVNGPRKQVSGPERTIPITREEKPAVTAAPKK
Test: Kinetic turbidity aggregation assay of recombinant cryAB(R120G)
Type: biochemical
Conditions: for inhibition at 25 µM: 25 μM compound, read-out: % Inhibition of Protein Aggregation, 25 μM cmpd; for inhibition at 25 µM / inhibition at 100 µM: 15 μM cryAB(R120G), 42° C., absorbance at 550 nm; for inhibition at 100 µM: 100 μM compound, read-out: % Inhibition of Protein Aggregation, 100 μM cmpd; for pIC50: inhibition of cryAB(R120G) protein aggregation
Description: Example A-1: Kinetic Turbidity Aggregation Assay of Recombinant cryAB(R120)
Recombinant cryAB(R120G) protein was diluted to 100 μM in assay buffer (50 mM Tris, 100 mM NaCl, 5 mM DTT, 0.01% Triton X-100, 0.05% PEG-8000). Compounds were dissolved in DMSO at 10 mM then typically diluted to 2.5 mM in DMSO and serially diluted 2-fold as necessary. To a 384-well black microplate in quadruplicate was added 81 μL assay buffer, followed by 15 μL protein solution, and 4 μL compound to give a final concentration of 15 μM cryAB(R120G) protein in 4% DMSO. […] N.D. is not determined.

SMILES | inhibition at 25 µM [%] | inhibition at 100 µM [%] | pIC50
C[C@H]1CCCN1C(CNS(=O)(=O)c1ccc2cc[nH]c2c1)c1cn(C)c2ccccc12 (stereo partly drawn) [Compound 48] | 23 | 76.9 | 
Cn1cc(C(CNS(=O)(=O)c2ccc3cc[nH]c3c2)Nc2ccncc2)c2ccccc21 (stereo not drawn) [Compound 49, N-(2-(1-methyl-1H-indol-3-yl)-2-(pyridin-4-ylamino)ethyl)-1H-indole-6-sulfonamide] | 47 | 99.2 | 4.30 to 5.00
Cn1cc(C(CNS(=O)(=O)c2ccc3cc[nH]c3c2)NCc2ccccc2)c2ccccc21 (stereo not drawn) [Compound 50, N-(2-(benzylamino)-2-(1-methyl-1H-indol-3-yl)ethyl)-1H-indole-6-sulfonamide] | 95 | 94.1 | ≥ 5.00
Cn1cc(C(CNS(=O)(=O)c2ccc3cc[nH]c3c2)Nc2ccccc2)c2ccccc21 (stereo not drawn) [Compound 51, N-(2-(1-methyl-1H-indol-3-yl)-2-(phenylamino)ethyl)-1H-indole-6-sulfonamide] | 46 | 80.4 | 
Cn1cc(C(CNS(=O)(=O)c2ccc3cc[nH]c3c2)N2CCC(C)(C)C2)c2ccccc21 (stereo not drawn) [Compound 52, N-(2-(3,3-dimethylpyrrolidin-1-yl)-2-(1-methyl-1H-indol-3-yl)ethyl)-1H-indole-6-sulfonamide] | 62 | 96.2 | 
C[C@@H]1CCCN1[C@H](CNS(=O)(=O)c1ccc2cc[nH]c2c1)c1cn(C)c2ccccc12 [Compound 53, N-((S)-2-(1-methyl-1H-indol-3-yl)-2-((R)-2-methylpyrrolidin-1-yl)ethyl)-1H-indole-6-sulfonamide] | 99.6 | 99.9 | ≥ 5.00
Cn1cc(C(CNS(=O)(=O)c2ccc3cc[nH]c3c2)N2CCCC2)c2ncccc21 (stereo not drawn) [Compound 54, N-(2-(1-methyl-1H-pyrrolo[3,2-b]pyridin-3-yl)-2-(pyrrolidin-1-yl)ethyl)-1H-indole-6-sulfonamide] | -41 | 66 | 
C[C@@H]1CCCN1[C@@H](CNS(=O)(=O)c1ccc2cc[nH]c2c1)c1cn(C)c2ccccc12 [Compound 55, N-((R)-2-(1-methyl-1H-indol-3-yl)-2-((R)-2-methylpyrrolidin-1-yl)ethyl)-1H-indole-6-sulfonamide] | 33 | 99.6 | 4.00 to 4.30
CN(C)C(CNS(=O)(=O)c1ccc2cc[nH]c2c1)c1cccc2cccnc12 (stereo not drawn) [Compound 57, N-(2-(dimethylamino)-2-(quinolin-8-yl)ethyl)-1H-indole-6-sulfonamide] | 25 | 82.4 | 
Cn1cc([C@@H](CNS(=O)(=O)c2ccc3cc[nH]c3c2)N2CC[C@@H](c3ccccc3)C2)c2ccccc21 [Compound 58, N-((S)-2-(1-methyl-1H-indol-3-yl)-2-((S)-3-phenylpyrrolidin-1-yl)ethyl)-1H-indole-6-sulfonamide] | -8 | 66.7 | 
Cn1cc([C@H](CNS(=O)(=O)c2ccc3cc[nH]c3c2)N2CC[C@@H](c3ccccc3)C2)c2ccccc21 [Compound 59, N-((R)-2-(1-methyl-1H-indol-3-yl)-2-((S)-3-phenylpyrrolidin-1-yl)ethyl)-1H-indole-6-sulfonamide] | 2 | 49.8 | 
Cn1cc([C@@H](CNS(=O)(=O)c2ccc3cc[nH]c3c2)N2CC[C@H](c3ccccc3)C2)c2ccccc21 [Compound 60, N-((S)-2-(1-methyl-1H-indol-3-yl)-2-((R)-3-phenylpyrrolidin-1-yl)ethyl)-1H-indole-6-sulfonamide] | 57 | 94.9 | 
Cn1cc([C@H](CNS(=O)(=O)c2ccc3cc[nH]c3c2)N2CC[C@H](c3ccccc3)C2)c2ccccc21 [Compound 61, N-((R)-2-(1-methyl-1H-indol-3-yl)-2-((R)-3-phenylpyrrolidin-1-yl)ethyl)-1H-indole-6-sulfonamide] | 1 | 66.7 | 
CC(=O)N[C@@H]1CCN(C(CNS(=O)(=O)c2ccc3cc[nH]c3c2)c2cn(C)c3ccccc23)C1 (stereo partly drawn) [Compound 62, N-((3R)-1-(2-(1H-indole-6-sulfonamido)-1-(1-methyl-1H-indol-3-yl)ethyl)pyrrolidin-3-yl)acetamide] | -39 | 53.1 | 
Cc1cc2cc[nH]c2cc1S(=O)(=O)NCC(c1cn(C)c2ccccc12)N(C)C (stereo not drawn) [Compound 63, N-(2-(dimethylamino)-2-(1-methyl-1H-indol-3-yl)ethyl)-5-methyl-1H-indole-6-sulfonamide] | 25 | 99.2 | 
C[C@H]1CCCN1[C@H](CNS(=O)(=O)c1ccc2cc[nH]c2c1)c1cn(C)c2ccccc12 [Compound 64, N-((S)-2-(1-methyl-1H-indol-3-yl)-2-((S)-2-methylpyrrolidin-1-yl)ethyl)-1H-indole-6-sulfonamide] | 9 | 95.4 | 
C[C@H]1CCCN1[C@@H](CNS(=O)(=O)c1ccc2cc[nH]c2c1)c1cn(C)c2ccccc12 [Compound 65, N-((R)-2-(1-methyl-1H-indol-3-yl)-2-((S)-2-methylpyrrolidin-1-yl)ethyl)-1H-indole-6-sulfonamide] | 93 | 99.7 | 
Cn1cc([C@@H](CNS(=O)(=O)c2ccc3cc[nH]c3c2)N2CCCC2)c2cccnc21 [Compound 66, (S)-N-(2-(1-methyl-1H-pyrrolo[2,3-b]pyridin-3-yl)-2-(pyrrolidin-1-yl)ethyl)-1H-indole-6-sulfonamide] | -10 | 42 | 
Cn1cc([C@H](CNS(=O)(=O)c2ccc3cc[nH]c3c2)N2CCCC2)c2cccnc21 [Compound 67, (R)-N-(2-(1-methyl-1H-pyrrolo[2,3-b]pyridin-3-yl)-2-(pyrrolidin-1-yl)ethyl)-1H-indole-6-sulfonamide] | 34 | 73.3 | 
CN(C)C(CNS(=O)(=O)c1ccc2cc[nH]c2c1)c1cn(Cc2cncs2)c2ccccc12 (stereo not drawn) [Compound 69, N-(2-(dimethylamino)-2-(1-(thiazol-5-ylmethyl)-1H-indol-3-yl)ethyl)-1H-indole-6-sulfonamide] | 58 | 100 | 
CN(C)C(CNS(=O)(=O)c1ccc2cc[nH]c2c1)c1cn(CC2COC2)c2ccccc12 (stereo not drawn) [Compound 70, N-(2-(dimethylamino)-2-(1-(oxetan-3-ylmethyl)-1H-indol-3-yl)ethyl)-1H-indole-6-sulfonamide] | 76 | 99.6 | 
CN(C)C(CNS(=O)(=O)c1ccc2cc[nH]c2c1)c1cn(CC#N)c2ccccc12 (stereo not drawn) [Compound 71, N-(2-(1-(cyanomethyl)-1H-indol-3-yl)-2-(dimethylamino)ethyl)-1H-indole-6-sulfonamide] | 63 | 99.3 | 
CCn1nc(C(CNS(=O)(=O)c2ccc3cc[nH]c3c2)N(C)C)c2ccccc21 (stereo not drawn) [Compound 72, N-(2-(dimethylamino)-2-(1-ethyl-1H-indazol-3-yl)ethyl)-1H-indole-6-sulfonamide] | 62 | 98.2 | 4.30 to 5.00
Cc1cccc2c(C(CNS(=O)(=O)c3ccc4cc[nH]c4c3)N(C)C)cn(C)c12 (stereo not drawn) [Compound 73, N-(2-(1,7-dimethyl-1H-indol-3-yl)-2-(dimethylamino)ethyl)-1H-indole-6-sulfonamide] | 57 | 99.5 | 
CO[C@@H]1CCN([C@H](CNS(=O)(=O)c2ccc3cc[nH]c3c2)c2cn(C)c3ccccc23)C1 [Compound 74, N-((S)-2-((R)-3-methoxypyrrolidin-1-yl)-2-(1-methyl-1H-indol-3-yl)ethyl)-1H-indole-6-sulfonamide] | 40 | 99.9 | 
CO[C@@H]1CCN([C@@H](CNS(=O)(=O)c2ccc3cc[nH]c3c2)c2cn(C)c3ccccc23)C1 [Compound 75, N-((R)-2-((R)-3-methoxypyrrolidin-1-yl)-2-(1-methyl-1H-indol-3-yl)ethyl)-1H-indole-6-sulfonamide] | -10 | 99.2 | 
C[C@@H]1CCN([C@H](CNS(=O)(=O)c2ccc3cc[nH]c3c2)c2cn(C)c3ccccc23)C1 [Compound 76, N-((S)-2-(1-methyl-1H-indol-3-yl)-2-((R)-3-methylpyrrolidin-1-yl)ethyl)-1H-indole-6-sulfonamide] | 28 | 85.1 | 
C[C@@H]1CCN([C@@H](CNS(=O)(=O)c2ccc3cc[nH]c3c2)c2cn(C)c3ccccc23)C1 [Compound 77, N-((R)-2-(1-methyl-1H-indol-3-yl)-2-((R)-3-methylpyrrolidin-1-yl)ethyl)-1H-indole-6-sulfonamide] | 88 | 100 | 
O=S(=O)(NC[C@H](c1cnc2ccccn12)N1CCCC1)c1ccc2cc[nH]c2c1 [Compound 78, (R)-N-(2-(imidazo[1,2-a]pyridin-3-yl)-2-(pyrrolidin-1-yl)ethyl)-1H-indole-6-sulfonamide] | 23 | 99.6 | 
